Laboratory results published in patent US10221239B2, “TRPM4 channel inhibitors for stroke treatment” (Singapore Health Services Pte Ltd, priority 2013, dated 2019).
“Also recorded” adds a separate entry of the source.

Key:
HUVECs [1] = assay: HUVEC cell number count after different doses of 9-phenanthrol; format: cell-based, human
Experimental: (§1) HUVECs (Lonza, Wokingham, UK) were cultured at 37° C. with 5% CO2. The culture medium is endothelial growth medium-2 (EGM-2) consisting of endothelial basal medium (EBM), supplemented with 2% fetal bovine serum, hydrocortisone, hFGF, VEGF, R3-IGF-1, ascorbic acid, HEGF, GA-1000, and heparin (Lonza, Wokingham, UK). Cells at passage 6-10 were used for experiments. HUVECs were subjected to oxygen/glucose deprivation (OGD). To achieve supplement deprivation, EGM-2 was changed to EBM without fetal bovine serum or growth supplements. Hypoxia was induced by culturing the cells in a hypoxic chamber (Stem Cell Technologies, Vancouver, Canada) with 1% O2 and 5% CO2 at 37° C. for 24 hours.
To test the functional impact of TRPM4 on HUVECs, the cells were incubated with the TRPM4-specific blocker 9-phenanthrol. […] A study was performed in which 9-phenantrol with the concentration ranged from 0.1 μM to 30 μM was added to HUVECs. […] Thus, 5 μM 9-phenanthrol was used to treat HUVECs.

TRPM5 channel = biological target: T1, TRPM5 channel (Homo sapiens, UniProt Q9NZQ8); details: Grand T, et al. 2008; cited from earlier work
T1 sequence (Q9NZQ8 1-1165): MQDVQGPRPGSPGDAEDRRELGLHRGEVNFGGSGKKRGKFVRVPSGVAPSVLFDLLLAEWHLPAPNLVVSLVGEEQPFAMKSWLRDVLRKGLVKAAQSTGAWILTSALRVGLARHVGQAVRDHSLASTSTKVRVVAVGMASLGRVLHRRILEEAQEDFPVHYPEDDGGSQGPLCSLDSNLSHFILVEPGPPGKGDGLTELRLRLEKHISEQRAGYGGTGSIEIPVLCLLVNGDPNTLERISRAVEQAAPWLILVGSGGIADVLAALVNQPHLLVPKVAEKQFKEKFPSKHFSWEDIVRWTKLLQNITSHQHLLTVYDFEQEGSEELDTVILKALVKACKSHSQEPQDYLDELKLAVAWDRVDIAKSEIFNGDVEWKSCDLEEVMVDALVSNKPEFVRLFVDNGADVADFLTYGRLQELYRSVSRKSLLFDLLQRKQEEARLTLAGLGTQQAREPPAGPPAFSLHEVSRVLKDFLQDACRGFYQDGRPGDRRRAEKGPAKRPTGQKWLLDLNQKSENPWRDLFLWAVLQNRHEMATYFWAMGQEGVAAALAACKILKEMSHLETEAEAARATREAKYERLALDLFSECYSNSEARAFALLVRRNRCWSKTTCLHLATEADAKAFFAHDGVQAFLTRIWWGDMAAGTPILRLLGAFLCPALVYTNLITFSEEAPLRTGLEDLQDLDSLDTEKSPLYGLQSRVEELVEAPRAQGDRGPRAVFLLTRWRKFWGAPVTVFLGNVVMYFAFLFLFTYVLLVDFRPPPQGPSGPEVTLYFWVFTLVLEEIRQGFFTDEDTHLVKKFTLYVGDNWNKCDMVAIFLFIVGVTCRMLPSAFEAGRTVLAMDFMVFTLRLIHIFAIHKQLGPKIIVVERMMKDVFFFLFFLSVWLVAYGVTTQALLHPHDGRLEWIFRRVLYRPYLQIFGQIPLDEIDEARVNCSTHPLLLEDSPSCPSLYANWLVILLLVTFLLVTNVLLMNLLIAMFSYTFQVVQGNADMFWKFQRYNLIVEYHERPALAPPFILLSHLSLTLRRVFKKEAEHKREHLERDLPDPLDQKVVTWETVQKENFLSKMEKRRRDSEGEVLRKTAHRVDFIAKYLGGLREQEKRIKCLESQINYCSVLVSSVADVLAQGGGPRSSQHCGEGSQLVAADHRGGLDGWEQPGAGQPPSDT

HUVECs [2] = assay: HUVEC cell death after oxygen/glucose deprivation (cell count, MTT); format: cell-based, human; details: 5 μM
Experimental: as §1

HUVECs [3] = assay: Tube formation of HUVECs on Matrigel after OGD; format: cell-based, human; details: 5 μM
Experimental: as §1
HUVECs were divided into the following groups: Normoxia; Normoxia+5 μM 9-phenanthrol (Sigma); Hypoxia; and Hypoxia+5 μM 9-phenanthrol. A 24-well culture plate was precoated with 250 μl of growth factor-reduced Matrigel (Sigma, USA) at 37° C. for 30 minutes. 24 hours after OGD, 4×10^4 cells (in 300 μl of EGM-2) from each group were seeded onto the Matrigel-coated plates. The formation of capillary structures was examined under a light microscope after 4 hours. This study was replicated more than 4 times.

TRPM4 homomers = TRPM4 homomers (Homo sapiens, UniProt Q8TD43); details: Sala-Rabanal M, et al. 2012; cited from earlier work
Sequence of TRPM4 homomers (Q8TD43 whole entry): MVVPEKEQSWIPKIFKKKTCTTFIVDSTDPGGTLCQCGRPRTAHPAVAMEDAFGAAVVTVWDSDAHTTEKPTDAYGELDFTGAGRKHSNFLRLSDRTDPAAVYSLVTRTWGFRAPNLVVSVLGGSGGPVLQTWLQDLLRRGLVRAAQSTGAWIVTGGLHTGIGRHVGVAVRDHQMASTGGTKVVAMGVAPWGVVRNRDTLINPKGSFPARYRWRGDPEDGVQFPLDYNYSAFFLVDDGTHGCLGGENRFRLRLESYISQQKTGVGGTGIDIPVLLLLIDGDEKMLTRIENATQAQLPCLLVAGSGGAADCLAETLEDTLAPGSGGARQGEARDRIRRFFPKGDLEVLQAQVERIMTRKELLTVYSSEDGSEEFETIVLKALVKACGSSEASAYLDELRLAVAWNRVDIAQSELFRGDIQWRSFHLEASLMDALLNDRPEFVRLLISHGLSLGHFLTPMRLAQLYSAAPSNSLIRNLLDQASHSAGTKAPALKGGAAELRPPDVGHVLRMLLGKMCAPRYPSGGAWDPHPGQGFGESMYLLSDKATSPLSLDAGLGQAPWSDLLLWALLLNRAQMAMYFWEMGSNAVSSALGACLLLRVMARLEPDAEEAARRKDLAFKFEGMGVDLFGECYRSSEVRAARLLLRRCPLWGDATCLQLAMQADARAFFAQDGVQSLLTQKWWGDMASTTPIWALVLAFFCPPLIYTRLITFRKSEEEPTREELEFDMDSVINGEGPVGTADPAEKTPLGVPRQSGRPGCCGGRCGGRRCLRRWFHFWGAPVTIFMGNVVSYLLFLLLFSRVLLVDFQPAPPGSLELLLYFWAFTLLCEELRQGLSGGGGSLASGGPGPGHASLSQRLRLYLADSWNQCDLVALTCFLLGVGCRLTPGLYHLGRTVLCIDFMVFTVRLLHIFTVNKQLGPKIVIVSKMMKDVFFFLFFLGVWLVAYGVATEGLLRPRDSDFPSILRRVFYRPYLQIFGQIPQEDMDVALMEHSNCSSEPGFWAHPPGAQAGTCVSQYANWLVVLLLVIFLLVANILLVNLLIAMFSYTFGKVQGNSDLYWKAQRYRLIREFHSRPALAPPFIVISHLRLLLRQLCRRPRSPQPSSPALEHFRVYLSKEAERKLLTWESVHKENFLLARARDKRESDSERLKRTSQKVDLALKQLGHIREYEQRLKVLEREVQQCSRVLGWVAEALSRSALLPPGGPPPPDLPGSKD

SMILES: Oc1cc2ccccc2c2ccccc12 [9-phenanthrol]
- cell death (HUVECs [1]; 10 μM 9-phenanthrol in culture medium): Cell death became prominent
- cell survival (HUVECs [1]; 30 μM 9-phenanthrol): Very few cells survived
- cell death (HUVECs [1]; 9-phenanthrol between 0.1 μM and 5 μM): No difference
- effect on TRPM5 channel (TRPM5 channel): does not affect
- cell death after OGD (HUVECs [2]; 24 hours OGD): did not reduce cell death
- MTT assay cell viability (HUVECs [2]; vs control cells): no difference
- HUVEC cell number count (HUVECs [2]; vs control cells, normoxia and hypoxia 24 hours): no difference
- tube formation (tube branches) on Matrigel (HUVECs [3]): large enhancement; also recorded: significantly increased

SMILES: COc1ccc(Cl)cc1C(=O)NCCc1ccc(S(=O)(=O)NC(=O)NC2CCCCC2)cc1 [glibenclamide]
- sensitivity of TRPM4 homomers (TRPM4 homomers): not sensitive
